Results reported in ChEMBL document CHEMBL1201862, “PubChem BioAssay data set” (2004).
The source made the active and inactive calls.

Columns and labels:
[1] = target: T1, Calpain-2 catalytic subunit (Sus scrofa, UniProt P43367); experiment: pig calpain II inhibitor potency, dose response, biochemical, fluorogenic peptide substrate (AID 1420); type: functional
T1 sequence (P43367 whole entry): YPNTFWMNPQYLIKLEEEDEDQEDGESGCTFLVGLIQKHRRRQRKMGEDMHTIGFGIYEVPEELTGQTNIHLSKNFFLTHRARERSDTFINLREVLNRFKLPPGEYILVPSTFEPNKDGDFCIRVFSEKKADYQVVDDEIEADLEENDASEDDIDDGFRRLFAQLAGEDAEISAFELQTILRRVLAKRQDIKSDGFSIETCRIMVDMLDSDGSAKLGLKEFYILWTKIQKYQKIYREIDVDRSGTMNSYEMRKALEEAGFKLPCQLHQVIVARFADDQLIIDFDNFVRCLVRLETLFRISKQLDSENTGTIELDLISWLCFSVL

[2] = HEp-2 cell cytotoxicity, dose response, cytotoxicity control for RSV inhibitor project, HTS (AID 2410); type: functional; conditions: human respiratory syncytial virus
cells [3] = type: functional
[4] = target: T2, Carboxy-terminal domain RNA polymerase II polypeptide A small phosphatase 1 (Homo sapiens, UniProt Q9GZU7); experiment: inhibitors of CTDSP1, concentration-response testing, biochemical assay, absorbance-based, actives from ultra-high-throughput screening (AID 540297); type: functional
T2 sequence (Q9GZU7 whole entry): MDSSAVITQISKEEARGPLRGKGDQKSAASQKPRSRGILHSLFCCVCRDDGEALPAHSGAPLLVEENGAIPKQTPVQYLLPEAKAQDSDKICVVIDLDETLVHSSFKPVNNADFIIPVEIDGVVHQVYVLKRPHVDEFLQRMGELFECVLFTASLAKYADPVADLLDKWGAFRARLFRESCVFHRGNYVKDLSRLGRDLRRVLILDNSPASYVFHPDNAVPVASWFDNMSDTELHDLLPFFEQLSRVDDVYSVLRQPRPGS

[5] = ZM109 Env clade C HIV-1 fusion inhibitors, dose response, HeLa effector, CEM target cells, luciferase, cherry-pick (AID 652058); type: functional, cell-based
[6] = target: T3, Short transient receptor potential channel 4 (Mus musculus, UniProt Q9QUQ5); experiment: mouse TRPC4 channel inhibitors, dose response, cell-based, HEK293 TRPC4/mu-opioid, Fluo-4 calcium (AID 434942); type: functional;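 also: potency of inhibitors blocking the TRPC4 calcium response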
T3 sequence (Q9QUQ5 whole entry): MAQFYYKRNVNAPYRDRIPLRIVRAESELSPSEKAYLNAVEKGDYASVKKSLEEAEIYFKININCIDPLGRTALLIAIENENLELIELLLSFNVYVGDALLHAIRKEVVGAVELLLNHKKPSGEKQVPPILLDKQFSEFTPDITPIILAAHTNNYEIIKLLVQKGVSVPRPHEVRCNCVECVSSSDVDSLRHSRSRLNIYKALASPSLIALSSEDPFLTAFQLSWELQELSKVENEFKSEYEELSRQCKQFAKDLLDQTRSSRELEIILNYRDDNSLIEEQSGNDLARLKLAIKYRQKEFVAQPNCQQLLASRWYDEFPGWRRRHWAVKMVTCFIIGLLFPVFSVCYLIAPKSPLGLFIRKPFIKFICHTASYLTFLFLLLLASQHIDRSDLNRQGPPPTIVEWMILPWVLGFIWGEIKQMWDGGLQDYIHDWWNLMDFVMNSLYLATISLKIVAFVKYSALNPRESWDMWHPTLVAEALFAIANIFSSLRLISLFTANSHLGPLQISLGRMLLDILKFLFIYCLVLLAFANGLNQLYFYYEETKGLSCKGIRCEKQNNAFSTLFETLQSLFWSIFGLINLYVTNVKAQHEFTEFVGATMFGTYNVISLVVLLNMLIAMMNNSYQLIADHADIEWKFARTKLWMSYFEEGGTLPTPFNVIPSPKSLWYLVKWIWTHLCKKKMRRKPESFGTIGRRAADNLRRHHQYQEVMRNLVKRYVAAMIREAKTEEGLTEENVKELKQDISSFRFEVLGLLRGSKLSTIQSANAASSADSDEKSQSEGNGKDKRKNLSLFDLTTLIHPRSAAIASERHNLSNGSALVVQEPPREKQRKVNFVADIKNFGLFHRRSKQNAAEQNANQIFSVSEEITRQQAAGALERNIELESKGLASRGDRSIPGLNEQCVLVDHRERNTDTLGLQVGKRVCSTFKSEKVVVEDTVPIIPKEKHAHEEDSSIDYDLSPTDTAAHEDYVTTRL

[7] = target: Voltage-dependent T-type calcium channel subunit alpha-1H (Homo sapiens, UniProt O95180); type: functional;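 also: channel activity triggered by adding a high calcium stimulation buffer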
[8] = cytotoxicity toward NIH3T3 fibroblasts, dose response, counter-screen, cell-based, ATP luminescence, mouse fibroblasts (AID 2010); type: functional;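 also: cells exposed to compound for about 90 hours before reading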
[9] = inhibitors of intracellular T. cruzi replication, confirmation, NIH3T3 host cells, beta-gal luminescence (AID 2044); type: functional, cell-based;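 also: intracellular parasites grown in NIH/3T3 mouse fibroblasts as host cells; luminescent beta-galactosidase reporter signal from transgenic T. cruzi replicating inside host cells; inhibitors lower the luminescence signal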
cells [10] = type: functional, cell-based
[11] = NIH-3T3 fibroblast cytotoxicity, dose response, cytotoxicity control, cell-based, fluorescence, Alamar Blue, secondary assay (AID 2327); type: functional;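 also: NIH-3T3 mouse fibroblasts cultured with fluconazole at 8 µg/mL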
[12] = Luminescence Cell-Based Dose Retest to Confirm Inhibitors of Cancer Stem Cells. [Related pubchem assays (depositor defined):AID2717, AID2721]; type: functional; conditions: Homo sapiens
[13] = system: Streptococcus sp. 'group A'; experiment: growth inhibition of control SK(-) GAS strain, dose response, counter-screen for streptokinase expression inhibitor project, luminescence, kanamycin, BacTiterGlo, confirmation (AID 1900); type: functional, organism-based
cells [14] = type: functional, cell-based; remark: listed apart in the source
[15] = Luminescence Cell-Based Dose Response HTS to Identify Inhibitors of 5'UTR Stem-Loop Driven Prion Protein mRNA Translation in H4 Neuroglioblastoma Cells. [Related pubchem assays: 1827 (Project Summary), 1813 (Primary HTS)]; type: functional
[16] = inhibitors of SNCA 5'UTR-driven reporter translation, confirmation, H4 neuroglioma cells, luminescence (AID 1988); type: functional, cell-based
[17] = C. albicans growth with fluconazole, confirmation, fluorescence, retest (AID 2467); type: functional, cell-based
Streptococcus = experiment: Group A Streptococcus viability loss, dose response, counter-screen for streptokinase expression inhibitor project, luminescence, BacTiterGlo (AID 1915); type: functional, organism-based;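 also: potency for reduction of bacterial viability or growth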
[18] = inhibitors of firefly luciferase expression or activity, dose response, H4 neuroglioma cells, luminescence (AID 1990); type: functional, cell-based
[19] = target: T4, Corticotropin-releasing factor receptor 2/Corticotropin-releasing factor-binding protein (Homo sapiens, UniProt P24387+Q13324); experiment: Dose Response confirmation of uHTS hits for small molecule antagonists of the CRF-binding protein and CRF-R2 receptor complex.; type: functional; conditions: read-out: IC50_Mean
T4 sequence (Q13324 whole entry): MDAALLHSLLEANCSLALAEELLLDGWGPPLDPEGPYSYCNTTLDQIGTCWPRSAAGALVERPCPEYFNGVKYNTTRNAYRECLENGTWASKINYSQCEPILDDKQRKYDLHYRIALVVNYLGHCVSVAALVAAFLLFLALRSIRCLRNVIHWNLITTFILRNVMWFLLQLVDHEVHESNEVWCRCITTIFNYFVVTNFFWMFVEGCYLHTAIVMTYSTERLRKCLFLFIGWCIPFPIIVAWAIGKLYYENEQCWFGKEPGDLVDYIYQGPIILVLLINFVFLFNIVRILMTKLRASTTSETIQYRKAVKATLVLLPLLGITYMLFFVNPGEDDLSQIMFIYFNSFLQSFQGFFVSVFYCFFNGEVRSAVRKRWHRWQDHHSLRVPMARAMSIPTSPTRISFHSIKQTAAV
T4 sequence (P24387 whole entry): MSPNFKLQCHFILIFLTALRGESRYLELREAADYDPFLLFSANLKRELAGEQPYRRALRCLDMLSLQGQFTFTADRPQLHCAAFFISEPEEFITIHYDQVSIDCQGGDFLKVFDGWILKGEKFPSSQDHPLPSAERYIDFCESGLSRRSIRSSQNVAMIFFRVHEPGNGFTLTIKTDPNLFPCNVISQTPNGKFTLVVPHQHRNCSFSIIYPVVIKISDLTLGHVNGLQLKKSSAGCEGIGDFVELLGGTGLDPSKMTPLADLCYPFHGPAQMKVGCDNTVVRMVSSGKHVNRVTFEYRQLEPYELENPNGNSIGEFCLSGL

[20] = target: T4, Corticotropin-releasing factor receptor 2/Corticotropin-releasing factor-binding protein; experiment: activators of CRF receptor 2 with binding protein – uHTS hits, confirmation (AID 602473); type: functional; conditions: read-out: EC50_Mean
[21] = growth suppression of PTEN-null colon cells, dose response, cell-based, HCT116 PTEN knockout (AID 1047); type: functional;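 also: HCT116 colon tumor cells with PTEN knocked out; cells exposed to compound for 60 hours before readout; potency for loss of cell viability measured by luminescence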
[22] = growth suppression of beta-catenin-knockout colon cells, dose response, cell-based, HCT116, human colon tumor (AID 1045); type: functional;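 also: HCT116 colon tumor cells with beta catenin knocked out; cells exposed to compound for 60 hours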

Voltage-dependent T-type calcium channel subunit alpha-1H, sequence (O95180 whole entry): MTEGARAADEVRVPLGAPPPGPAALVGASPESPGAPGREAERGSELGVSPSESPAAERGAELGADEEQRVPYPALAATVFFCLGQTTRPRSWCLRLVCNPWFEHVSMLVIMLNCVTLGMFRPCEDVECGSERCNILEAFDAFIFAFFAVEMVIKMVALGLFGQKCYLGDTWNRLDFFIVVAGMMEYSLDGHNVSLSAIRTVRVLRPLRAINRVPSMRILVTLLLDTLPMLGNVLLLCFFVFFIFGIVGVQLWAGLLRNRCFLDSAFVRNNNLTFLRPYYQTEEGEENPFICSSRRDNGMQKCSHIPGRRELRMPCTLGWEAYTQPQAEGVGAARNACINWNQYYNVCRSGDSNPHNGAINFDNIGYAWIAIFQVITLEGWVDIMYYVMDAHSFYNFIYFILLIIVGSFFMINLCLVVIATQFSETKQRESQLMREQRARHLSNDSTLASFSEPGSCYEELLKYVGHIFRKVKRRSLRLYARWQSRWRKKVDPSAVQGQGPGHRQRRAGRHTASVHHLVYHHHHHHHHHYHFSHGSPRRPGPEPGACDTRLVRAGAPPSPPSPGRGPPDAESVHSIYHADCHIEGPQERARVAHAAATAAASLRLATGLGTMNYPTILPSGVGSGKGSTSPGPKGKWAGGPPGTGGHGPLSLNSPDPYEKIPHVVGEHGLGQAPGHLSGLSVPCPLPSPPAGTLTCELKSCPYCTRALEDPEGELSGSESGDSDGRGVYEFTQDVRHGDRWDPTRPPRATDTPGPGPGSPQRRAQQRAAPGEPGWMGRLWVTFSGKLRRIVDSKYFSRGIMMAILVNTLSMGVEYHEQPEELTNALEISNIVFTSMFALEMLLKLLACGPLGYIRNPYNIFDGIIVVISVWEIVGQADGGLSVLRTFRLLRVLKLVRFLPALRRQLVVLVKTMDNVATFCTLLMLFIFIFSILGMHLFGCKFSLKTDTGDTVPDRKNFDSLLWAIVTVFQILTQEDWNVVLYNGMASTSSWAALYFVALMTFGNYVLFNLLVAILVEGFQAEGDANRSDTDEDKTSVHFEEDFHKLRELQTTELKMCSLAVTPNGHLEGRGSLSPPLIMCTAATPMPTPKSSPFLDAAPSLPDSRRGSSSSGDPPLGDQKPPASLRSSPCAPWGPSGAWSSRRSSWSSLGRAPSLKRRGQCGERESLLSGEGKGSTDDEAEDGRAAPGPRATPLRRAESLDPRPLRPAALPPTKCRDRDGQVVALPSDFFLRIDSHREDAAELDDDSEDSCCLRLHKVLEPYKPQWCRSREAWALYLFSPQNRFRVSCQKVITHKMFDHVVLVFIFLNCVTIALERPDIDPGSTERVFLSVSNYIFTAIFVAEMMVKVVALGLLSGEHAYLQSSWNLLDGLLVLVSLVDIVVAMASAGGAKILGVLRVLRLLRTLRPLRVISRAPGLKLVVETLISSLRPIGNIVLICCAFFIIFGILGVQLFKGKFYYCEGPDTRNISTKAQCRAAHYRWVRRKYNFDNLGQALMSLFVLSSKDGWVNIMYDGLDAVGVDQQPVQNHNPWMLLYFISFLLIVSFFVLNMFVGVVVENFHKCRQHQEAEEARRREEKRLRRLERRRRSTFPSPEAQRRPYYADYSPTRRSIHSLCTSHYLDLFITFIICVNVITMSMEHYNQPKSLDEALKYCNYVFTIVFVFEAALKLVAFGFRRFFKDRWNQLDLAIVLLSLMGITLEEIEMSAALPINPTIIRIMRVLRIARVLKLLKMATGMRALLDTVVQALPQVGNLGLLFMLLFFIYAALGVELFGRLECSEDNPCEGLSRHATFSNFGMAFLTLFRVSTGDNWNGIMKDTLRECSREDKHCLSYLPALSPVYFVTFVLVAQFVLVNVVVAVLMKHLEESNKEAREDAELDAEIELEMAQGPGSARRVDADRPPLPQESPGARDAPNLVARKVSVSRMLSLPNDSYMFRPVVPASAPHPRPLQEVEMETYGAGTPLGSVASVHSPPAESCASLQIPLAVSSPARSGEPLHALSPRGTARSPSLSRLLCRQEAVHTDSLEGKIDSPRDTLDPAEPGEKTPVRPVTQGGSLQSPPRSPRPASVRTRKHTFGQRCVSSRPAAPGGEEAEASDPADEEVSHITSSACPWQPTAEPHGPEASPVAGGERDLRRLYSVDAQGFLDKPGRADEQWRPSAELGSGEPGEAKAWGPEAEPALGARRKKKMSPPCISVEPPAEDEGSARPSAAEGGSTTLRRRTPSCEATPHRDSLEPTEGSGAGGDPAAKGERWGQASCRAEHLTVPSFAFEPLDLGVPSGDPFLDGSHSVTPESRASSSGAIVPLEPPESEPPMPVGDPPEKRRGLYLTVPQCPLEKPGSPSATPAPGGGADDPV

Compound: COc1cccc(Nc2nc(N)c([N+](=O)[O-])c(NCc3ccco3)n2)c1
- IC50 [1]: 7.89 µM (not active)
- CC50 [2]: 15.8 µM (active)

Compound: O=C(Nc1nc2ccccc2n1CCN1CCCC1)c1ccc(Cl)cc1
- IC50 (cells [3]): 25.4 µM (active)

Compound: COc1ccc(C(=O)OCC(=O)NCc2ccco2)cc1OC
- IC50 [4]: 9.73 µM (active)

Compound: O=C(C[C@H]1C[C@@H]2c3cc(NC(=O)Nc4ccc(F)cc4)ccc3O[C@@H]2[C@@H](CO)O1)NCC1CC1
- AC50 [5]: 41.4 µM (active)

Compound: Cc1cc(Br)c(NC(=O)CN(C)CCOc2ccccc2)c(Br)c1
- EC50 [6]: 5.96 µM (active)

Compound: O=C(CN1CCCCCCC1)Nc1ccc(Cl)cc1Cl
- IC50 [1]: 4.92 µM (not active)

Compound: O=C(OCCCCN1C(=O)c2ccccc2C1=O)c1ccc(Br)o1
- IC50 (cells [3]): 46.8 µM (active)

Compound: Cc1cc(OCc2cc(C(=O)NCC3(C)COC3)no2)cc(C)c1Cl
- EC50 [6]: 2.37 µM (active)

Compound: Cc1ccc2c(c1)N(C(=O)CCC(=O)Nc1ccccc1Br)CC(C)O2 (centres undefined)
- EC50 [6]: 1.68 µM (active)

Compound: O=C(OCCCOC(=O)c1ccc([N+](=O)[O-])o1)c1ccc([N+](=O)[O-])o1
- IC50 (cells [3]): < 0.1 µM (active)

Compound: Cc1cc(=O)oc2cc(NC(=O)c3ccc(OC(F)F)cc3)ccc12
- IC50 [4]: 10.2 µM (active)

Compound: CCc1ccc(NC(=O)C(=O)NNC(=O)COc2cccc(OC)c2)cc1
- IC50 (cells [3]): 5.58 µM (active)

Compound: CCCc1nc2ccccc2n1CCOc1ccccc1
- EC50 [7]: 8.61 µM (active)

Compound: CN1/C(=C\C(=O)COC(=O)C2COc3ccccc3O2)C(C)(C)c2ccccc21 (centres undefined)
- IC50 (cells [3]): 48.2 µM (active)

Compound: Cc1cc(SCC(=O)N/N=C/c2ccc(O)cc2O)c(C)cc1Br
- EC50 [8]: > 60 µM (inconclusive)
- EC50 [9]: 0.687 µM (active)
- EC50 (cells [10]): > 350 µM (not active)
- EC50 [11]: > 160 µM (inactive)
- AC50 [12]: 4.49 µM (active)
- EC50 [13]: 2.46 µM (active)
- EC50 (cells [14]): 13.4 µM (active)
- EC50 [15]: 9.19 µM (active)
- EC50 [16]: 5.74 µM (active)
- EC50 [17]: 3.06 µM (active)
- EC50 (Streptococcus): 2.57 µM (active)
- EC50 [18]: 5.85 µM (active)

Compound: c1ccc(-c2noc(CSc3nnc(Cc4cccs4)n3-c3ccccc3)n2)cc1
- EC50 [7]: 4.16 µM (active)

Compound: CCN(CC)CCOC(=O)C(Cc1ccco1)Cc1cccc2ccccc12 (centres undefined)
- EC50 (cells [10]): > 350 µM (not active)
- IC50 [19]: > 47.1 µM (inactive)
- EC50 [20]: > 53 µM (inactive)
- EC50 (cells [14]): > 350 µM (not active)
- EC50 [15]: > 120 µM (not active)
- EC50 [16]: > 120 µM (not active)
- EC50 [18]: > 120 µM (not active)

Compound: COc1ccc(O)c(C(=O)c2cnc3c(c2)c(=O)[nH]c(=O)n3C)c1
- EC50 [6]: 1.5 µM (active)

Compound: CC1CC(C)CN(C(=O)Cn2c(=O)n(CCCCC(=O)NCc3ccco3)c(=O)c3ccccc32)C1 (centres undefined)
- IC50 [1]: > 50 µM (not active)

Compound: CCOc1cc(CNCc2cccs2)ccc1OCC(=O)NC(C)(C)C
- EC50 [6]: 2.11 µM (active)

Compound: C=CCOc1ccc(Br)cc1CNC(C)(C)CO
- EC50 [6]: 3.76 µM (active)

Compound: Cn1nnnc1SCCNCc1ccccc1OCc1ccc(Cl)cc1
- EC50 [6]: 1.33 µM (active)

Compound: Cc1ncsc1CCOC(=O)C12CC3CC(CC(C3)C1)C2
- EC50 [6]: 5.31 µM (active)

Compound: Cc1ccc(NC(=O)c2cc(-c3ccc(C)c(C)c3O)n[nH]2)cc1C
- IC50 [4]: 8.08 µM (active)

Compound: N#CC(c1cccc(C(F)(F)F)c1)(c1ncc(C(F)(F)F)cc1Cl)N1CCOCC1 (centres undefined)
- EC50 [7]: 2.49 µM (active)

Compound: C#CCSc1nnc(-c2ccc([N+](=O)[O-])cc2)o1
- IC50 (cells [3]): 9.4 µM (active)

Compound: Cc1[nH]n(S(=O)(=O)Cc2ccccc2)c(=O)c1N=Nc1ccccc1Cl
- IC50 (cells [3]): 8.42 µM (active)

Compound: Cc1ccccc1Cn1c(=O)n(CC2CCC(C(=O)NCCc3ccccc3)CC2)c(=O)c2ccccc21 (centres undefined)
- IC50 [1]: 20.7 µM (not active)
- EC50 [21]: 13.3 µM (active)
- EC50 [22]: 17 µM (active)

Compound: O=C(c1cc2sccc2n1Cc1ccccc1)N1CCCc2ccccc21
- EC50 [7]: 5.98 µM (active)
